Assay results as given in the supplement of paper PMC10883282.

Assays:
Assay in all cases: relative viability vs DMSO control (72 h) (fraction); higher = more viable cells
G401 = system: G401
How it was run: (§1)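 ATPLite readings, expressed as percent growth and averaged over up to triplicate wells, provided relative viability. Before reading, sarcoma cell lines seeded in 384-well plates to reach 80–90% confluence received 2.5 µl of serially diluted compound after 24 h, from source plates of 10 mM to 0.0002 mM. Plates were held 72 h at 37 °C, 5% CO2, with 0.1% DMSO as vehicle and a 5 µM positive control. The data were rescaled to 1 for full and 0 for none.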

A204 = system: A204
How it was run: as §1

SW1353 = system: SW1353
How it was run: as §1

SK-ES-1 = system: SK-ES-1
How it was run: as §1

HT1080 = system: HT1080
How it was run: as §1

SW684 = system: SW684
How it was run: as §1

SW982 = system: SW982
How it was run: as §1

SW872 = system: SW872
How it was run: as §1

RD-ES = system: RD-ES
How it was run: as §1

KHOS-240S = system: KHOS-240S
How it was run: as §1

KHOS-NP = system: KHOS-NP
How it was run: as §1

SYO-1 = system: SYO-1
How it was run: as §1

O=C1CCc2c(Oc3ccc4c(c3)[C@@H]3[C@H](O4)[C@H]3c3nc4cc(C(F)(F)F)ccc4[nH]3)ccnc2N1 [Lifirafenib]
Conditions | relative viability
A204, 0.00017 µM | 1.1
A204, 0.00051 µM | 1.12
A204, 0.00152 µM | 1.12
A204, 0.00457 µM | 1.104
A204, 0.01372 µM | 1.1
A204, 0.04115 µM | 1.11
A204, 0.1235 µM | 1.1
A204, 0.3704 µM | 0.781
A204, 1.111 µM | 0.49
A204, 3.333 µM | 0.38
A204, 10 µM | 0.317
G401, 0.00017 µM | 1.02
G401, 0.00051 µM | 1.03
G401, 0.00152 µM | 1.03
G401, 0.00457 µM | 1.02
G401, 0.01372 µM | 1.02
G401, 0.04115 µM | 1.03
G401, 0.1235 µM | 1.035
G401, 0.3704 µM | 1.01
G401, 1.111 µM | 0.957
G401, 3.333 µM | 0.787
G401, 10 µM | 0.625
HT1080, 0.00017 µM | 1.09
HT1080, 0.00051 µM | 1.05
HT1080, 0.00152 µM | 1.046
HT1080, 0.00457 µM | 1.08
HT1080, 0.01372 µM | 1.07
HT1080, 0.04115 µM | 1.11
HT1080, 0.1235 µM | 1.09
HT1080, 0.3704 µM | 1.09
HT1080, 1.111 µM | 1.04
HT1080, 3.333 µM | 0.9439
HT1080, 10 µM | 0.491
KHOS-240S, 0.00017 µM | 1.068
KHOS-240S, 0.00051 µM | 1.07
KHOS-240S, 0.00152 µM | 1.06
KHOS-240S, 0.00457 µM | 1.08
KHOS-240S, 0.01372 µM | 1.06
KHOS-240S, 0.04115 µM | 1.06
KHOS-240S, 0.1235 µM | 1.06
KHOS-240S, 0.3704 µM | 1.03
KHOS-240S, 1.111 µM | 0.967
KHOS-240S, 3.333 µM | 0.792
KHOS-240S, 10 µM | 0.547
KHOS-NP, 0.00017 µM | 1.07
KHOS-NP, 0.00051 µM | 1.07
KHOS-NP, 0.00152 µM | 1.07
KHOS-NP, 0.00457 µM | 1.07
KHOS-NP, 0.01372 µM | 1.064
KHOS-NP, 0.04115 µM | 1.05
KHOS-NP, 0.1235 µM | 1.06
KHOS-NP, 0.3704 µM | 1.07
KHOS-NP, 1.111 µM | 0.8425
KHOS-NP, 3.333 µM | 0.433
KHOS-NP, 10 µM | 0.321
RD-ES, 0.00017 µM | 0.9742
RD-ES, 0.00051 µM | 0.997
RD-ES, 0.00152 µM | 0.98
RD-ES, 0.00457 µM | 0.991
RD-ES, 0.01372 µM | 1
RD-ES, 0.04115 µM | 0.981
RD-ES, 0.1235 µM | 0.992
RD-ES, 0.3704 µM | 1.04
RD-ES, 1.111 µM | 1.02
RD-ES, 3.333 µM | 0.954
RD-ES, 10 µM | 0.822
SK-ES-1, 0.00017 µM | 1.01
SK-ES-1, 0.00051 µM | 1.04
SK-ES-1, 0.00152 µM | 1.068
SK-ES-1, 0.00457 µM | 1.05
SK-ES-1, 0.01372 µM | 1.09
SK-ES-1, 0.04115 µM | 1.07
SK-ES-1, 0.1235 µM | 1.06
SK-ES-1, 0.3704 µM | 1.08
SK-ES-1, 1.111 µM | 1.04
SK-ES-1, 3.333 µM | 0.867
SK-ES-1, 10 µM | 0.572
SW684, 0.00017 µM | 1.17
SW684, 0.00051 µM | 1.2
SW684, 0.00152 µM | 1.18
SW684, 0.00457 µM | 1.16
SW684, 0.01372 µM | 1.15
SW684, 0.04115 µM | 1.15
SW684, 0.1235 µM | 1.154
SW684, 0.3704 µM | 1.22
SW684, 1.111 µM | 1.32
SW684, 3.333 µM | 1.3
SW684, 10 µM | 0.936
SW872, 0.00017 µM | 0.974
SW872, 0.00051 µM | 0.998
SW872, 0.00152 µM | 1.01
SW872, 0.00457 µM | 1.03
SW872, 0.01372 µM | 1.03
SW872, 0.04115 µM | 0.98
SW872, 0.1235 µM | 0.941
SW872, 0.3704 µM | 0.735
SW872, 1.111 µM | 0.644
SW872, 3.333 µM | 0.644
SW872, 10 µM | 0.59
SW982, 0.00017 µM | 1.04
SW982, 0.00051 µM | 1.03
SW982, 0.00152 µM | 1.055
SW982, 0.00457 µM | 1.05
SW982, 0.01372 µM | 1.02
SW982, 0.04115 µM | 1.02
SW982, 0.1235 µM | 1.05
SW982, 0.3704 µM | 1.03
SW982, 1.111 µM | 0.897
SW982, 3.333 µM | 0.757
SW982, 10 µM | 0.556
SW1353, 0.00017 µM | 0.989
SW1353, 0.00051 µM | 0.95
SW1353, 0.00152 µM | 0.989
SW1353, 0.00457 µM | 1.01
SW1353, 0.01372 µM | 1.06
SW1353, 0.04115 µM | 1.06
SW1353, 0.1235 µM | 1.06
SW1353, 0.3704 µM | 1.08
SW1353, 1.111 µM | 1.03
SW1353, 3.333 µM | 0.861
SW1353, 10 µM | 0.545
SYO-1, 0.00017 µM | 0.947
SYO-1, 0.00051 µM | 0.941
SYO-1, 0.00152 µM | 0.9369
SYO-1, 0.00457 µM | 0.947
SYO-1, 0.01372 µM | 0.937
SYO-1, 0.04115 µM | 0.91
SYO-1, 0.1235 µM | 0.905
SYO-1, 0.3704 µM | 0.823
SYO-1, 1.111 µM | 0.666
SYO-1, 3.333 µM | 0.555
SYO-1, 10 µM | 0.437
